Measured values reported in US9630947B2, “Therapeutic compounds and related methods of use” (OTSUKA PHARMACEUTICAL CO., LTD., priority 2009, dated 2017).

Biological target: T1, purified STEP46 enzyme (Homo sapiens, UniProt P54829)
T1 sequence (P54829 1-565): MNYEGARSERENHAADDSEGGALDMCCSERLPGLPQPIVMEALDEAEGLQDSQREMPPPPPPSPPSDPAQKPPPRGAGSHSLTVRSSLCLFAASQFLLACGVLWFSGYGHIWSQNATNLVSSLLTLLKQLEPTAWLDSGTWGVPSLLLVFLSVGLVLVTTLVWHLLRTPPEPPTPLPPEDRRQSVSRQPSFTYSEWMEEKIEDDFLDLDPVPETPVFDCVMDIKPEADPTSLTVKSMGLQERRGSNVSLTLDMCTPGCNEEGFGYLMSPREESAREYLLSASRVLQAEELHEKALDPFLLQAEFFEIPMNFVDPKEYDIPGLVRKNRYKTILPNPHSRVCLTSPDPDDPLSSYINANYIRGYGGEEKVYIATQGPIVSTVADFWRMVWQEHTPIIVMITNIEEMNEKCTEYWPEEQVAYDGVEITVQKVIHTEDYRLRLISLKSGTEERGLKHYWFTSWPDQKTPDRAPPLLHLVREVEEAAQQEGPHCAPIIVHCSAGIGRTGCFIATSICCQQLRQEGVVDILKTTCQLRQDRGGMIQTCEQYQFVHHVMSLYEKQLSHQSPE
Assay: STEP46 biochemical assay (DiFMUP fluorescence phosphatase assay)
Conditions: DiFMUP 10 μM, read-out: STEP IC50
Method: STEP46 Biochemical Assays
Serial dilutions of compounds were performed in 100% DMSO and 1 uL of compounds were dispensed into 384-well black polystyrene plates (Corning, NY). Compounds were incubated with 24 uL of buffer containing 50 mM Hepes, 1 mM DTT, 0.02% Brij35, 1 ng/well purified STEP46 enzyme for 30 min at room temperature. The reaction was initiated by addition of 25 uL of DiFMUP (6, 8-difluoro-4-methylumbelliferyl phosphate) (InVitrogen, CA) with a final concentration of 10 μM and incubated at 27° C. for 90 min. Final DMSO concentration is 2%. Plates were read with florescence intensity at excitation/emission of 360/460 nm using a PheraStar plate reader (BMG Labtech, NC).
Data were expressed as percentage (%) inhibition of enzyme activity. 0% inhibition is defined as the RFUs (relative fluorescence units) in the absence of compounds and 100% inhibition is defined as RFUs in the absence of STEP46 enzyme. IC50 values of compounds with inhibitory activity against STEP46 were determined by GraphPad Prism (version 4.03) using four parameter logistic equation. Some compounds act as activators. For compounds showing STEP46 enzymatic activation, data are represented as percentage of inhibition but with negative values at three representative concentrations (25, 50 and 100 uM).

`CNc1nc(-c2cccnc2)nc2cc(C)c(-c3cccc(OC)c3)cc12` [Compound 1419] and `CNc1nc(-c2cccnc2)nc2cc(C)c(-c3ccc(F)c(F)c3)cc12` [Compound 1416] fall in the same range of IC50: 1000 to 10000 nM for the first, 1000 to 10000 nM for the second.

`COc1ccccc1-c1ccc2c(Nc3ccc(F)c(Cl)c3)nc(-c3cccnc3)nc2c1` [Compound 682] and `COc1cccc(-c2ccc3nc(-c4cccnc4)nc(Nc4ccc(F)c(Cl)c4)c3c2)c1OC` [Compound 644] fall in the same range of IC50: 1000 to 10000 nM for the first, 1000 to 10000 nM for the second.

Compared with `CN(C)c1nc(-c2cccnc2)nc2ccc(-c3cccc(Cl)c3)cc12` [Compound 1333], `CN(C)c1nc(-c2cccnc2)nc2ccc(-c3ccccc3Cl)cc12` [Compound 1332] is lower in IC50: over 10000 nM for the first, 1000 to 10000 nM for the second.

`COc1ncccc1-c1ccc2nc(-c3cccnc3)nc(Nc3ccc(F)c(Cl)c3)c2c1` [Compound 650] and `N#Cc1ccccc1-c1ccc2nc(-c3cccnc3)nc(Nc3ccc(F)c(Cl)c3)c2c1` [Compound 639] cannot be ordered by IC50: under 1000 nM for the first, under 1000 nM for the second.

`CN(C)c1cccc(-c2ccc3c(Nc4ccc(F)c(Cl)c4)nc(-c4cccnc4)nc3c2)c1` [Compound 693] and `Fc1ccc(-c2ccc3c(Nc4ccc(F)c(Cl)c4)nc(-c4cccnc4)nc3c2)c(F)c1` [Compound 698] cannot be ordered by IC50: under 1000 nM for the first, under 1000 nM for the second.

First: CNc1nc(-c2cccnc2)nc2c(C)c(-c3ccccc3)ccc12 [Compound 1454]
Second: CNc1nc(-c2cccnc2)nc2c(C)c(-c3cccc(C#N)c3)ccc12 [Compound 1453]
The IC50 of the first is higher: over 10000 nM for the first, 1000 to 10000 nM for the second.

First: O=c1ccc2ccc(Nc3nc(-c4cccnc4)nc4ccc(-c5cccnc5)cc34)cc2[nH]1 [Compound 352]
Second: CCOc1ccc2nc(-c3cccnc3)nc(Nc3ccc4ccc(=O)[nH]c4c3)c2c1 [Compound 335]
The IC50 of the first is higher: 1000 to 10000 nM for the first, under 1000 nM for the second.

First: COc1ccc2nc(-c3cccnc3)nc(Nc3nc(-c4cccc(Br)c4)cs3)c2c1 [Compound 447]
Second: COc1ccc2nc(-c3cccnc3)nc(Nc3nc(-c4ccccc4Cl)cs3)c2c1 [Compound 431]
The IC50 of the first is higher: 1000 to 10000 nM for the first, under 1000 nM for the second.

`CNc1nc(-c2cccnc2)nc2cc(-c3cccc(F)c3F)ccc12` [Compound 1371] and `CNc1nc(-c2cccnc2)nc2ccc(-c3ccc(F)c(F)c3F)cc12` [Compound 1375] fall in the same range of IC50: 1000 to 10000 nM for the first, 1000 to 10000 nM for the second.

First: COc1ccc2nc(-c3cccnc3)nc(Nc3ccccc3C(=O)NC(C)c3cccc(C(F)(F)F)c3)c2c1 (stereo not drawn) [Compound 888]
Second: COc1ccc2nc(-c3cccnc3)nc(Nc3ccccc3Br)c2c1 [Compound 437]
The IC50 of the first is higher: over 10000 nM for the first, 1000 to 10000 nM for the second.

First: NC(=O)c1ccccc1Nc1nc(-c2cccnc2)nc2cc(-c3ccccc3F)ccc12 [Compound 702]
Second: NC(=O)c1ccccc1Nc1nc(-c2cccnc2)nc2cc(-c3ccc(F)cc3)ccc12 [Compound 701]
The IC50 of the first is lower: under 1000 nM for the first, 1000 to 10000 nM for the second. The first is the more potent here.

`CNc1nc(-c2cccnc2)nc2c(C)cc(-c3cccc(F)c3)cc12` [Compound 1280] and `CNc1nc(-c2cccnc2)nc2cc(C)c(-c3ccc(F)cc3)cc12` [Compound 1414] fall in the same range of IC50: 1000 to 10000 nM for the first, 1000 to 10000 nM for the second.

First: Fc1ccc(Nc2nc(-c3cccnc3)nc3ccc(-c4ccsc4)cc23)cc1Cl [Compound 648]
Second: Fc1cc(F)cc(-c2ccc3c(Nc4ccc(F)c(Cl)c4)nc(-c4cccnc4)nc3c2)c1 [Compound 675]
The IC50 of the first is higher: 1000 to 10000 nM for the first, under 1000 nM for the second. The second is the more potent here.

First: Fc1cccc(-c2ccc3nc(-c4cccnc4)nc(NC4CCCCC4)c3c2)c1F [Compound 1516]
Second: CNc1nc(-c2cccnc2)nc2ccc(-c3cc(OC)ccc3F)cc12 [Compound 1400]
The IC50 of the first is higher: over 10000 nM for the first, 1000 to 10000 nM for the second.

Compared with `CN(C)c1ccc2nc(-c3ccnnc3)nc(Nc3cccc(OC(F)F)c3)c2c1` [Compound 1153], `FC(F)(F)Oc1cccc(Nc2nc(-c3cnccn3)nc3ccccc23)c1` [Compound 1150] is higher in IC50: 1000 to 10000 nM for the first, over 10000 nM for the second. The first is the more potent here.

`Nc1nc(-c2cccnc2)nc2cc(-c3cc(F)ccc3F)ccc12` [Compound 1395] and `CNc1nc(-c2cccnc2)nc2ccc(-c3ccc(F)cc3F)c(C)c12` [Compound 1286] fall in the same range of IC50: 1000 to 10000 nM for the first, 1000 to 10000 nM for the second.

With `COc1ccc2nc(-c3cccnc3)nc(Nc3c(F)cccc3Cl)c2c1` [Compound 934] the IC50 was under 1000 nM.
